The text below walks through data of US20080268533A1, “Methods and Compositions Utilizing Myc and Gsk3Beta to Manipulate the Pluripotency of Embryonic Stem Cells” (University of Georgia Research Foundation, Inc., priority 2004, published 2008).

For data set [1], the system named is myc^Δ40-178ER cells. Nature of the data set: AP activity of dominant negative myc^Δ40-178ER cells with 4OHT. The class given is cell-based, mouse. The following applies: +LIF, 4OHT (25 nM), 6-day period, 92% at start. From the text:
While ES cell colonies with a typical domed-shape morphology could be maintained in the presence of LIF and in the absence of 4OHT over extended periods (>30 days), upon addition of 4OHT myc^Δ40-178ER cells changed morphology within several days, similar to that seen in spontaneously differentiating cells (data not shown). This coincided with down-regulation of specific transcripts associated with pluripotency such as Nanog and Oct4 together with the upregulation of early mesoderm (brachyury) and neuroectoderm (Sox1) transcripts (FIG. 10A). These trends were confirmed by AP activity assays in which the percentage of AP positive colonies declined from 92% to 45% over a 6-day period in the presence of 4OHT (FIG. 10B). […] This is consistent with the results showing that c-myc has a role in self-renewal and maintenance of pluripotency.

Data set [2] concerns vector alone cell lines. Put plainly: Self-renewal of vector alone ES cell lines with 4OHT. The following applies: absence of LIF. The class given is cell-based, mouse. An excerpt: Furthermore, authentic c-myc could maintain self-renewal in a similar manner to mycER fusions when expressed constitutively, independently of 4OHT (data not shown).
For data set [3], the system named is mycER ES cells. Put plainly: AP activity of mycER ES cells with 4OHT. The class given is cell-based, mouse. Here is the method: In the presence of 4OHT (mycER on), ES cells retained a uniform dome-shaped colony morphology (FIG. 1B), similar to that of LIF maintained cells (data not shown). In contrast, withdrawal of 4OHT promoted a distinct flattening of colonies with a less uniform appearance (FIG. 1C) that correlated with ES cells undergoing differentiation in the absence of LIF (data not shown). The ability of c-myc to promote ES cell self-renewal was confirmed in a LIF titration assay where mycER ES cells were grown in the presence or absence of 4OHT for 6 days in media containing LIF over a range of 0-1×10^3 units per ml and then assayed for AP activity. […] MycER cells were then grown in the presence or absence of 4OHT in the absence of LIF for up to 15 days and assayed for AP activity. […] Including low levels of LIF (7.5 units/ml), that by itself had only a small effect on maintaining AP levels over 15 days, appeared to further delay the loss of AP activity in mycER cells grown with 4OHT.

The test system of data set [4] is myc^T58AER cells. The conditions noted are these: 4OHT (−LIF) versus LIF maintained cells, 14-day period.
Protocol: For long-term maintenance, mycER and myc^T58AER mouse ES cells were grown in ES complete media supplemented with 4-hydroxytomoxifen (4OHT) (100 nM or 2-10 nM, respectively) and re-fed every second day. For differentiation of ES cells as embryoid bodies (EB), cells were trypsinized and replated on bacteriological dishes at 1.6×10^5 cells/cm^2 and grown in ESC media (−LIF) plus or minus 4OHT to allow for EB formation. Cells were re-fed every second day and expanded after 4 days of culture. mycER cells were passaged by limited trypsinization, avoiding generation of single cell suspensions. AP activity was assayed with Alkaline Phosphatase Substrate Kit I (Vector Laboratories) according to the manufacturers' instructions. LIF titration assays were performed over a range of 0 to 1×10^3 units ESGRO per ml in the presence or absence of 4OHT by plating cells in 24 well plates.
Data set [5] deals with hES BG01 cell lines transfected with c-myc^T58AER. The class given is cell-based. Here is the method: To address this question in hESCs, clonal hES BG01 cell lines transfected with a human c-myc^T58AER gene fusion were generated, identical to that used in the previous mESC studies.
To establish a role for c-myc in HESC self-renewal, c-myc activity was enforced by the addition of 4OHT. This experiment was performed to determine whether c-myc could maintain normal HESC growth and morphology on Matrigel for a period of approximately 15 days (3 passages) in the absence of MEF-CM and bFGF, conditions where spontaneous differentiation would be anticipated. Uninduced (−40HT) cells overtly differentiated after approximately 5-6 days in a manner closely resembling untransfected hESCs when grown in the absence of MEF-CM and bFGF on Matrigel, as judged by changes in cell/colony morphology, increased cell spreading, and a reduction in cell packing density (FIGS. 11B and C and data not shown). The cell lines were also analyzed by immunoblot analysis, evaluating levels of c-myc^T58AER, c-myc, and cdk2 (FIG. 11A).
Alkaline phosphatase (AP) activity was used as a read-out to assess whether c-myc maintained hESCs were still pluripotent. 67% of colonies grown with 4OHT were AP positive in contrast to −4OHT cells where only 4% were positive after a 15 day period (FIG. 11D and data not shown). As in mouse ES cells, elevated c-myc activity caused significant cell death (data not shown).

The structures appear in SMILES notation.

Consider `CC/C(=C(\c1ccc(O)cc1)c1ccc(OCCN(C)C)cc1)c1ccccc1` [4OHT, 4-hydroxytomoxifen], for which the “percentage of AP positive colonies” value in data set [1] is 45%. Besides, the self-renewal result in data set [2] was “did not promote self-renewal”. In data set [3] (mycER cells grown in 4OHT, 6 days, entire LIF titration range 0-1×10^3 units per ml), the “AP activity (positive)” value is recorded as over 90%. Further, the AP activity entry was “significantly reduced” in data set [3] (mycER cells, 14 days, −LIF, in the presence of 4OHT); “comparable between LIF maintained cells and those grown in the presence of 4OHT” in data set [4]. In addition, the “highest concentration of drug that did not promote c-myc-dependent cell death (optimal)” value in data set [5] (4OHT titration, c-myc^T58AER BG01 cell line) is 1 to 5 nM. For the same molecule, in data set [5] (c-myc^T58AER hESCs grown with 4OHT, Matrigel, no MEF-CM and bFGF, 15 day period), the “colonies AP positive” value stood at 67%.
